Assay type in all cases: cell-based
Data set [1] relates to nerve cell strain PC12. The experiment in a line: PC12 culture with immobilized EGF and dissolved EGF/NGF, hematoxilin-eosin staining (Example 6). Conditions: PC12, 48 hours. The protocol: An epidermal cell growth factor (EGF) and a nerve cell growth factor (NGF) were employed as the biologically active substances. A culture plate of polystyrene 96-well cell culture plate was prepared by a process similar to that in Example 5, providing areas (wells) where EGF was immobilized with stepwise concentrations, and control areas (wells) of no immobilization. Separately, a stretchable polyolefin sheet was coated with hydroxypropyl cellulose by using a bar coater and heated for 10 minutes at 60° C. to form a holding layer. Then EGF and NGF were provided on the sheet by using a Canon ink jet printer PIXUS950i to obtain a transfer sheet on which areas carrying EGF and NGF singly or in combination. Screening was conducted with these cell culture plate and transfer sheet.
The transfer sheet was placed on the cell culture plate sterilized in advance with a sterilizing lamp and filled with a culture liquid, then the areas carrying biological substance(s) of the sheet were brought into contact with the culture liquid in the wells by pushing the opposite surface of the sheet with a pointed article, and the contact was maintained for 15 minutes under light shaking to dissolve the biologically active substance in the culture liquid. […]

The test system of data set [2] is mouse skeletal muscle cell strain C2C12. The experiment in a line: C2C12 culture with sequential transfer sheets A and B, CK and ALP activities (Example 2). Conditions: C2C12, areas containing IGF-I only.
Source text: As the biologically active substances, fibroblast cell growth factor-2 (FGF-2), insulin-like growth factor-I (IGF-I), bone morphogenetic protein-2 (BMP-2) and transforming growth factor-β (TGF-β) were employed.
A DMEM culture liquid containing 2% FBS was put into wells of two 96-well transparent microplates 1 and 2. […] In this manner, the sheet A was used to provide FGF-2 and IGF-I to the microplate 1, and the sheet B was used to provide BMP-2 and TGF-β to the microplate 2. Then, in each well of each microplate, cells of mouse skeletal muscle cell strain C2C12 were cultured for 48 hours in humidified air supplied with 5% CO2. 48 hours after the start of the culture, the culture liquid was removed from each cell by suction. After fresh 2% FBS/DMEM was added to each well, a transfer sheet B was applied to the microplate 1 to supply BMP-2 and TGF-β, while a transfer sheet B was applied to the microplate 2 to supply FGF-2 and IGF-I, and the cell culture was conducted for further 48 hours.
For data set [3] the test system is unchanged. The experiment in a line: C2C12 culture with transfer sheet carrying b-FGF, IGF-I and BMP-2, microscope observation (Example 1). Conditions: C2C12, 96 hours culture.
Procedure: Basic fibroblast cell growth factor (b-FGF), insulin-like growth factor (IGF-I) and bone morphogenetic protein (BMP-2) were used as the biologically active substance. b-FGF was dissolved in a physiological saline solution, IGF-I in 10 mM acetic acid, and BMP-2 in 4 mM hydrochloric acid to prepare solutions each containing the biologically active substance at a concentration of 20 μg/ml and 5% glycerin. Ink cartridges were washed with 70% ethanol, to which the respective solutions prepared above were filled.
Then, on a base of a polyolefin sheet (NOVIX-II® manufactured by Asahi Techno Glass), sterilized in advance with a sterilizing lamp, the biologically active substances were discharged by using an ink jet printer (Ink jet printer F930, Canon). […]
The cells after the culture were treated with 10% formalin for 15 minutes and then with methanol for 15 minutes, and finally with a 1000-fold dilution of fluorescent dye (TOTO-3 manufactured by Molecular Probe) for 30 minutes for fluorescent staining of DNA. […] Also the cells were subjected to freeze-fracture and the creatinkinase (KP) and alkaliphosphatase (ALP) activities were measured.
Data set [4] shares this test system. The experiment in a line: C2C12 culture on plate with immobilized b-FGF and IGF-I and BMP-2 transfer sheet, optical microscope (Example 5). Conditions: C2C12, 96 hours.
Procedure: The following method was employed for acting biologically active substances in combination on cells. As the biologically active substances, there were employed basic fibroblast cell growth factor (b-FGF), insulin-like growth factor (IGF-I) and bone morphogenetic protein (BMP-2).
First, bFGF and IGF-I were immobilized onto a polystyrene 96-well cell culture plate in the following manner.
On the cell culture plate coated with poly-L-lysine, a solution (1.5 mg/ml) of active dextran activated with tresyl chloride was added to bind the activated dextran to the plate. Then carbonate buffer solutions containing b-FGF and IGF-I respectively were prepared, applied to the microplate with various amounts. The microplate was left to stand for 12 hours at 4° C. to prepare a cell culture plate including areas where b-FGF and IGF-I were immobilized either singly or in combination with different concentrations, as well as control areas without immobilization.
A polystyrene sheet having projections corresponding the wells of the microplate was provided and sterilized. […]
Then the cells were treated with 10% formalin for 15 minutes and then with methanol for 15 minutes, and reacted with a fluorescent dye for 30 minutes for fluorescent staining of DNA. […] Thus the complex effects of three factors, namely immobilized bFGF, soluble IGF-I and BMP-2, to the cells were analyzed.
For data set [5] the test system is unchanged. Briefly: C2C12 culture with BMP-2, sustained-release IGF-I and timed FGF-2 addition, ALP staining (Example 3). The protocol: On the other hand, the 20 μg/ml solution of the insulin-like growth factor (IGF-I) contained 5% glycerin and 3% styrene-acrylic resin monoethanolamine salt (average molecular weight 8,000, acid value 250) for controlled release of IGF. Ink cartridges were washed with 70% ethanol, and were filled with the respective solutions of the biologically active substances.
Each polyolefin sheet was processed in advance to have minute holes at positions corresponding to the wells of a 96 well plate to allow gas exchange. A DMEM culture liquid containing FBS by 2% was put in wells of five 96-well transparent microplates. […] Then, in each well, cells of a mouse skeletal muscle cell strain C2C12 were added. Next, a transfer sheet carrying IGF-I was superimposed on each of the microplate and pressed from the above using the above jig so that each region of the sheet came in contact with the culture liquid in each well to gradually release IGF-I into the culture liquid, and cell culture was started. The above operations were carried out in the same manner with the five microplates. After a predetermined time from the start of the culture, the transfer sheet of one of the microplates was replaced by a transfer sheet carrying FGF-2 to dissolve FGF-2 into the culture liquid. After that the transfer sheet was replaced by the previous IGF-I sheet and the culture was continued. All the cells were cultured for 114 hours in total at 37° C., in humidified air containing 5% CO2. The FGF-2 addition was conducted at the following points:
(1) immediately after the start of culture;
(2) 12 hours after the start of culture;
(3) 24 hours after the start of culture;
(4) 48 hours after the start of culture;
(5) 72 hours after the start of culture.

Consider “EGF: epidermal cell growth factor, immobilized on the plate or dissolved from the sheet”, for which the “effect on proliferation and differentiation (nuclei and cell morphology), immobilized state versus dissolved state” value in data set [1] is “affected the PC12 cells differently”.

As to “IGF-I: insulin-like growth factor used as biologically active substance”, the “muscle differentiation (CK relative activity)” value in data set [2] was “accelerated”. In addition, the “differentiation into muscle cells (microscope observation)” value in data set [3] (areas containing IGF-I) is on record as “accelerated depending on the concentrations”. For the same substance, the “muscle differentiation (optical microscope)” value in data set [4] (areas containing IGF-I) is on record as “muscle differentiation”.

In the case of “b-FGF: Basic fibroblast cell growth factor, a cell growth factor used as biologically active substance”, the “cell proliferation (microscope observation)” value in data set [3] (areas containing b-FGF) was “accelerated depending on the concentrations”. In addition, the “cell proliferation (optical microscope)” value in data set [4] (areas containing immobilized b-FGF) was “cell proliferation”. The “ALP staining (index for bone differentiation by BMP-2)” value in data set [5] (FGF-2 added (1) immediately after the start of culture) is “stained portions were scarcely observed”; in data set [5] (FGF-2 added (2) 12 hours after the start of culture) it was “stained portions were scarcely observed”; in data set [5] (FGF-2 added (3) 24 hours after the start of culture) it was “portions stained with ALP were confirmed”; in data set [5] (FGF-2 added (4) 48 hours after the start of culture), “portions stained with ALP were confirmed”; in data set [5] (FGF-2 added (5) 72 hours after the start of culture), “portions stained with ALP were confirmed”. Moreover, the “bone differentiation from muscle cells into bone cells” value in data set [5] (adding FGF-2 within 24 hours after the start of the culture) is given as “significantly suppressed”.

(Values after patent US7960168B2, “Biologically active substance transfer sheet, cell culture kit constituted of cell culture plate and biologically active substance transfer sheet, producing method thereof and method for screening cell culture conditions utilizing the same” (Canon Kabushiki Kaisha, priority 2003, dated 2011).)
